# Test results as given in US20230040415A1 (PureTech LYT 100, Inc., priority 2020, published 2023).
# Columns and labels:
# [1] = system: NASH mice; assay: NASH mouse model (streptozotocin + high fat diet), liver histology; type: in vivo; conditions: n = 8
# Excerpt: Non-alcoholic steatohepatitis (NASH) is characterized by lobular inflammation, hepatocyte ballooning and degeneration progressing to liver fibrosis. […] In addition, nine non-NASH mice were fed with a normal diet and monitored.
# [2] = system: Primary Mouse Lung Fibroblasts; assay: TGF-β-induced insoluble collagen synthesis, 6-well plate format (Sircol); type: cell-based; conditions: Fibroblast, TGF-β 5 ng/ml, 72 hrs, p=0.026, read-out: inhibition of TGF-β-induced total collagen
# Protocol: One hundred thousand Primary Mouse Lung Fibroblasts were plated in 6-well plates and incubated in complete DMEM until they reached confluency. The incubation medium was removed and complete DMEM containing Prolin (10 μM) and Ascorbic acid (20 μg/ml) was added.
# Supernatant was removed, cells were washed with cold PBS, 1 ml Sircol reagent was added. The Sircol reagent contains the collagen binding dye Sirius red. The cells were scraped off with Sircol reagent and samples were shaken for 5 h at room temperature (RT), centrifuged at 10,000 rpm for 5 min, supernatant was removed, the pellet was washed in 0.5 M acetic acid to remove unbound dye, and recentrifuged at 10,000 rpm for 5 min, supernatant was removed and the final pellet was dissolved in 1 ml 0.5M NaOH and shaken at RT for 5 h. A sample of 100 μl of resultant solution was placed in 96-well. The color reaction was assessed by optical density at a wave length of 600 nm.
# [3] = system: Primary Mouse Lung Fibroblasts; assay: TGF-β-induced soluble fibronectin ELISA; type: cell-based; conditions: Fibroblast
# Protocol: Approximately 5,000 primary mouse lung fibroblasts were plated in complete DMEM in 96 well plates and incubated for 3 days at which time the cultures achieved confluency. After cells reached to confluency, medium was removed and fresh DMEM supplemented with ascorbic acid (20 μg/ml) and prolin (10 μM) was added. […] One hour later, TGF-β (5 ng/ml) was added to the appropriate cultures at a final concentration. After 72 hours, 200 μl samples of the supernatant were placed onto an ELISA plate and incubated overnight. After blocking with %1 BSA for 2 h, plates were incubated with either an anti-collagen type I antibody or an anti-fibronectin antibody.
# The plates were washed after 1 hour and incubated with secondary horseradish peroxidase-conjugated antibodies (anti-goat for the collagen antibody, anti-rabbit for the fibronectin antibody). After a series of washing steps the color reagent TMB (3,3′,5,5′-Tetramethylbenzidine) was added and 15 minutes later the reactions were terminated with equal volumes of 2 N H2SO4. The levels of soluble collagen and fibronectin were determined by evaluating absorbance at 450 nm.
# [4] = system: L929 cells; assay: Survival of L929 cells (MTT); type: cell-based; conditions: 500 μM, 72 hrs
# Protocol: Five thousand L929 cells were plated in completed DMEN and incubated until confluency for 3 days. Medium was removed and complete DMEM containing Prolin (20 μg/ml) and ascorbic acid (10 uM) was added. […], of medium was removed, […], MTT solution was added for 4 hrs, then 100 μl of DMSO was added, and absorbance of developed dark pink color was determined at […].
# [5] = system: L929 cells; assay: TGF-induced collagen synthesis in L929 cells, 96-well plate format (SIRCOL); type: cell-based; conditions: 500 μM
# Protocol: Five thousand L929 cells were plated in complete DMEN and incubated until confluency for 3 days. Medium was removed and complete DMEM containing Prolin (20 μg/ml) and ascorbic acid (10 μM) was added. […] Cells were further incubated for 72 hrs. Supernatant was removed, 0.5% gluteraldehyde was added for 30 min at RT, removed, washed 3× with dd water, 0.5 M acetic acid was added for 30 min at RT, removed, washed with water, air dried and 100 μl SIRCOL dye was added for 5 h at RT. Dye was removed, plate was washed extensively under running water, air dried and 200 μl of 0.5 M NaOH was added, plates were shaken at RT for 1 h, and OD was determined at 600 nm.
# [6] = system: L929 cells; assay: TGF-induced soluble collagen synthesis in L929 cells (ELISA); type: cell-based; conditions: 500 μM
# Protocol: Five thousand L929 cells were plated in complete DMEN and incubated until confluency for 3 days. Medium was removed and complete DMEM containing Prolin (20 μg/ml) and ascorbic acid (10 μM) was added. […] Cells were further incubated for 72 hrs. 200 μl supernatant of 96-well SIRCOL plate was placed onto ELISA plate and incubated 0/N. Next day, supernatant was removed and 100 ul of 1% BSA in PBST was added and incubated for 2 h at RT, BSA was removed, plate was washed 3× with 200 μl of PBST, and anti-collagen type I a.b was added at 1:2000 dilution (prepared in %1 BSA in PBST), incubated at RT for 1 h, primary a.b was removed, plate was washed 3× with 200 μl PBST, and secondary anti-goat HRP was added at 1:2000 dilution, incubate at RT for 1 h, removed, plate was washed 3× with 200 μl PBST and 100 μl of TMB solution was added for color development for 15 min, then 100 μl of 2 N H2SO4 was added to stop the reaction and O.D of developed yellow color was determined at 450 nm.
# [7] = system: L929 cells; assay: TGF-induced soluble fibronectin synthesis in L929 cells (ELISA); type: cell-based; conditions: 500 μM, in the absence and presence of TGF-β-induction
# Excerpt: Fibronectin is another important component of fibrotic lungs as it is induced by TGF-β and functions both as a structural component of extra cellular matrix as well as well as a ligand for integrin receptors. Just like soluble collagen, binding of fibronectin to integrin receptors induces the proliferation of fibroblast and epithelial cells of the lungs.
# [8] = system: mouse tail model of lymphedema; assay: Mouse tail model of lymphedema; type: in vivo; conditions: once daily oral gavage, by 5 weeks; 7 animals per group
# [9] = human, in vivo
# Protocol: All Part 1 cohorts will be dosed every 12 hours with food for 5 days.
# During the treatment period (Day 1 through Day 5), subjects will be administered their assigned study medication BID, every 12 h±0.25 h (with approximately 240 mL of non-carbonated water), 30 minutes after the start of consumption of their standardised breakfast or dinner (12 h apart). A standardised lunch will be served >4 h post breakfast and >4 h prior to dinner. An evening snack will be served >3 h following evening study medication administration. No additional fluids will be allowed during the 1 h pre- and post-doses. On Day 6, subjects will replicate mealtimes as scheduled on Day 1-5. To ensure study drug dosing every 12 hours, here is an example of meal and dosing schedule in Part 1: • Breakfast: meal to be served 30 mins prior to AM dosing. Breakfast must be completed within 30 mins of start time. • Lunch: meal to be served at least 4 h post-AM study drug dose. • Dinner: meal to be served at least 11.5 h post-AM dose and served 30 minutes prior to PM study drug dose. • Evening snack: Snack to be served at least 15 h post-AM dose (at least 3 h post-PM dose).
# In Part 1, blood samples (4 mL each) for PK will be collected for Cohorts 1, 2, 3, 4, and 6 at specified times (hours) at each as follows: • Day 1 and Day 5: 0 (pre-dose), 0.5, 1, 1.5, 2, 2.5, 3, 3.5, 4, 6, 8, 12 (pre-dose), 13, 14, 15, 16, 18 h • Day 2, Day 3 and Day 4: 0 (pre-morning-dose) and 12 h (pre-evening-dose) • Day 6: 12, 18, 24 and 36 h post-last dose • Day 7: 48 h (post-last dose)
# Pharmacokinetics for Day 1 to 3 in Part 2 (fed state) will be compared to PK for Day 1 to Day 3 in Part 2 (fasted state). Plasma PK parameters (non-compartmental or compartmental analysis as appropriate) will include, but are not limited to: • Following single dose: Tmax, tlag, Cmax, AUC0-4, AUC0-last, AUC0-inf, lambda z, % AUCext, CL/F, Vz/F, Cmax/D, AUC0-last/D, AUC0-inf/D and MRT (D is dose) • After repeated doses: Ctrough, Ctrough/D • Following repeated doses on last day: Tmax, Cmax, Cavg, tlag, t1/2, AUC0-4, AUC0-last, AUC0-inf, lambda z, % AUCext, CLss/F, Vzss/F, MRT, PTF, Rac(AUC), Rac(Cmax), Cmax/D, AUClast/D, AUC0-inf/D and Rac (accumulation ratio) Part 3 (Patients with Secondary Lymphoedema Post-Axillary/Post-Sentinel Node Dissection)
compound,measurement,setting,value
"[2H]C([2H])([2H])c1ccc(=O)n(-c2ccccc2)c1 [LYT-100, 5-(methyl-d3)-1-phenylpyridin-2-(1H)-one]",NAS (mean ± SD),[1]; 30 mg/kg twice daily oral,4.0 ± 1.1
same,"Hepatocyte ballooning score 2 (Many cells/prominent ballooning), number of animals",[1],8
same,"Lobular Inflammation score 1 (<2 foci/200x), number of animals",[1],5
same,"Lobular Inflammation score 2 (2-4 foci/200x), number of animals",[1],3
same,"Steatosis score 0 (<5%), number of animals",[1],4
same,"Steatosis score 1 (5-33%), number of animals",[1],3
same,"Steatosis score 2 (>33%-66%), number of animals",[1],1
same,inhibition at 500 µM,[2],15%
same,inhibition at 500 µM,"[3]; TGF-β 5 ng/ml, 72 hours, p=0.0185, read-out: inhibition of TGF-β-dependent induction of soluble fibronectin",11%
same,inhibition at 500 µM,"[3]; no TGF-β, p=0.03, read-out: inhibition of background level of soluble fibronectin",10%
same,survival of L929 cells,[4],does not affect survival
same,total collagen level in the absence of TGF-β induction,[5],significantly inhibited or reduced
same,TGF-β-induced total collagen levels,"[5]; TGF-β 5 ng/ml, 72 hrs",significantly inhibited or reduced
same,soluble collagen levels in the absence of TGF-β-induction,[6],significantly reduced
same,TGF-β-induced soluble collagen levels,"[6]; TGF-β 5 ng/ml, 72 hrs",significantly inhibits
same,soluble fibronectin levels,[7],significantly reduced
same,tail swelling vs carboxymethylcellulose control,[8],significantly reduced swelling
same,dose dependence of AUC96-108,[9],linear dose proportionality
